Data published in publication PMC3664942 (Physical chemistry chemical physics : PCCP, 2013).

Legend:
metal-free Aβ1-40 = conditions: read-out: Kd relative to Aβ monomer; absence of metal ions; cited from earlier work
Aβ1-40 = assay: nESI-IM-MS neuropeptide screen for binding with Aβ1-40; conditions: for Complex formation with Aβ1-40 detected by nESI-IM-MS: 20 μM Aβ1-40, one equivalent of neuropeptide, pH 6.9, 1 h on ice; for Aβ complexes detected by IM-MS: neuropeptide added in large excess in solution
hippocampal neurons = conditions: μM concentrations; cited from earlier work

Substance	Kd (metal-free Aβ1-40) [µM]	Complex formation with Aβ1-40 detected by nESI-IM-MS (Aβ1-40)	Aβ complexes detected by IM-MS (Aβ1-40)	Inhibition of Aβ-induced neurotoxicity (hippocampal neurons)
(–)-epigallocatechin-3-gallate [EGCG]	~60			
galanin		detected		
substance P		not evident	No Aβ complexes were detected	inhibitors of Aβ-induced neurotoxicity
neurotensin		not evident	No Aβ complexes were detected	
Somatostatin 14		not evident	No Aβ complexes were detected	
physalaemin [reference compound]				inhibitors of Aβ-induced neurotoxicity
